Reference: patent US8962608B2, “Cycloalkylnitrile pyrazole carboxamides as janus kinase inhibitors” (Merck Sharp & Dohme Corp., priority 2011, dated 2015)

Experiments:
[1] = target: JAK2 (recombinant purified GST-tagged catalytic domain) (Homo sapiens (Human), UniProt O60674); assay: biochemical;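 also: biochemical JAK kinase assay with HTRF detection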
[2] = target: JAK1 (recombinant purified GST-tagged catalytic domain) (Homo sapiens (Human), UniProt P23458); assay: biochemical;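 also: biochemical assay with HTRF read-out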
Sequence of JAK1 (recombinant purified GST-tagged catalytic domain) (P23458 875-1153): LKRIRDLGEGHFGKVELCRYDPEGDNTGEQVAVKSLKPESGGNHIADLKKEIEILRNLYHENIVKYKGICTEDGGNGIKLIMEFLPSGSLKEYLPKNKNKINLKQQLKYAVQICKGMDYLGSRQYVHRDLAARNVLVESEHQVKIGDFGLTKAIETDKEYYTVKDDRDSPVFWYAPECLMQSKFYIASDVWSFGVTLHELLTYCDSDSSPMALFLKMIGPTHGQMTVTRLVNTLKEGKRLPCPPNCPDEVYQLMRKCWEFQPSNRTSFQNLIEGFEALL

Sequence of JAK2 (recombinant purified GST-tagged catalytic domain) (O60674 849-1124): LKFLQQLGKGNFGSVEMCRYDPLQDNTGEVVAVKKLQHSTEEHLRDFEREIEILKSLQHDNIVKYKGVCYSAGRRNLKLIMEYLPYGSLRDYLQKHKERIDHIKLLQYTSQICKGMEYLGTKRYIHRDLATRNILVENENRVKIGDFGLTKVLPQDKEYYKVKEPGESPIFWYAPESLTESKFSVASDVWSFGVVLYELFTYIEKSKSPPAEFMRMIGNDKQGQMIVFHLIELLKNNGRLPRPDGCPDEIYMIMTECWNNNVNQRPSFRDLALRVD

IC50 [1] [nM]	IC50 [2] [nM]	SMILES
32	0.65	CN(C)[C@H]1CC[C@H](n2cc(C(N)=O)c(Nc3ccccc3)n2)[C@@H](C#N)C1 (single isomer, unassigned) [Example 28-135, 1-[(1S,2S,4S or 1R,2R,4R)-2-cyano-4-(dimethylamino)cyclohexyl]-3-(phenylamino)-1H-pyrazole-4-carboxamide]
315	30	CC(C)(O)C1CN(C(=O)[C@H]2CC[C@H](n3cc(C(N)=O)c(Nc4ccc(Cl)cc4)n3)[C@@H](C#N)C2)C1 (single isomer, unassigned) [Example 35-9, 3-[(4-chlorophenyl)amino]-1-[(1S,2S,4S or 1R,2R,4R)-2-cyano-4-{[3-(1-hydroxy-1-methylethyl)azetidin-1-yl]carbonyl}cyclohexyl}-1H-pyrazole-4-carboxamide]
76	6	N#C[C@@H]1C[C@H](OCC2CC2)CC[C@H]1n1cc(C(N)=O)c(Nc2ccnc(F)c2)n1 (single isomer, unassigned) [Example 26-2, 1-[(1R,2R,4R or 1S,2S,4S)-2-cyano-4-(cyclopropylmethoxy)cyclohexyl]-3-[(2-fluoropyridin-4-yl)amino]-1H-pyrazole-4-carboxamide]
26	2	N#C[C@H]1C[C@H](O)CC[C@@H]1n1cc(C(N)=O)c(Nc2ccccc2)n1 (single isomer, unassigned) [Example 25-29, 1-[(1S,2S,4R or 1R,2R,4S)-2-cyano-4-hydroxycyclohexyl]-3-(phenylamino)-1H-pyrazole-4-carboxamide]
34	4	N#C[C@H]1CCCC[C@@H]1n1cc(C(N)=O)c(Nc2ccc(F)c(F)c2)n1 (racemic) [Example 17-100, 1-[(1S,2S and 1R,2R)-2-cyanocyclohexyl]-3-[(3,4-difluorophenyl)amino]-1H-pyrazole-4-carboxamide]
169	13	N#C[C@@H]1C[C@H](C(=O)NC(C2CC2)C2CC2)CC[C@H]1n1cc(C(N)=O)c(Nc2ccc(Cl)cc2)n1 (single isomer, unassigned) [Example 35-5, 3-[(4-chlorophenyl)amino]-1-{(1R,2R,4R or 1S,2S,4S)-2-cyano-4-[(dicyclopropylmethyl)carbamoyl]cyclohcxyl}-1H-pyrazole-4-carboxamide]
56	2	N#C[C@H]1C[C@H](NCc2ccccc2)CC[C@@H]1n1cc(C(N)=O)c(Nc2ccnc(F)c2)n1 (single isomer, unassigned) [Example 28-123, 1-[(1S,2S,4R or 1R,2R,4S)-4-(benzylamino)-2-cyanocyclohexyl]-3-[(2-fluoropyridm-4-yl)amino]-1H-pyrazole-4-carboxamide]
3	0.3	N#C[C@H]1C[C@@H](NC2COC2)CC[C@@H]1n1cc(C(N)=O)c(Nc2ccc(CC(F)(F)F)cc2)n1 (single isomer, unassigned) [Example 28-79, 1-[(1S,2S,4S or 1R,2R,4R)-2-cyano-4-(oxetan-3-ylamino)cyclohexyl]-3-{[4-(2,2,2-trifluoroethyl)phenyl]amino}-1H-pyrazole-4-carboxamide]
70	6	N#C[C@H]1C[C@H](O)CCC1n1cc(C(N)=O)c(Nc2ccccc2)n1 (mixture of isomers) [Example 2-2, 1-[(1S,2S,4R and 1R,2R,4S)-2-cyano-4-hydroxycyclohexyl]-3-(phenylamino)-1H-pyrazole-4-carboxamide]
13	2	N#C[C@H]1CCCC[C@@H]1n1cc(C(N)=O)c(Nc2ccc(C(F)F)nc2)n1 (single isomer, unassigned) [Example 17-59, 1-[(1S,2S or 1R,2R)-2-cyanocyclohexyl]-3-{[6-(difluoromethyl)pyridin-3-yl]amino}-1H-pyrazole-4-carboxamide]
20	2	N#C[C@H]1C[C@@H](O)CC[C@@H]1n1cc(C(N)=O)c(Nc2ccc(Cl)c(Cl)c2)n1 (single isomer, unassigned) [Example 33-20, 1-[(1S,2S,4S or 1R,2R,4R)-2-cyano-4-hydroxycyclohexyl]-3-[(3,4-dichlorophenyl)amino]-1H-pyrazole-4-carboxamide]
64	3	N#C[C@H]1C[C@@H](NCC2CC2)CC[C@@H]1n1cc(C(N)=O)c(Nc2ccc(C(F)(F)F)cc2)n1 (single isomer, unassigned) [Example 28-10, 1-{(1S,2S,4S or 1R,2R,4R)-2-cyano-4-[(cyclopropyl-methyl)amino]cyclohexyl}-3-{[4-(trifluoromethyl)phenyl]amino}-1H-pyrazole-4-carboxamide]
2	0.35	CO/N=C(\C)c1ccc(Nc2nn([C@H]3CCCC[C@@H]3C#N)cc2C(N)=O)cc1 (single isomer, unassigned) [Example 40, 1-[(1S,2S or 1R,2R)-2-Cyanocyclohexyl]-3-{[4-(N-methoxyethanimidoyl)phenyl]amino}-1H-pyrazole-4-carboxamide]
3	0.32	N#C[C@H]1C[C@H](O)CCC1n1cc(C(N)=O)c(Nc2ccc(S(=O)(=O)C(F)F)cc2)n1 (mixture of isomers) [Example 14, 1-[(1S,2S,4R and 1R,2R,4S)-2-Cyano-4-hydroxycyclohexyl]-3-({4-[(difluoromethyl)sulfonyl]phenyl}amino)-1H-pyrazole-4-carboxamide]
65	1	C[C@H](N[C@H]1CC[C@H](n2cc(C(N)=O)c(Nc3ccc(OC(F)(F)F)cc3)n2)[C@@H](C#N)C1)C1CC1 (single isomer, unassigned) [Example 28-91, 1-[(1S,2S,4S or 1R,2R,4R)-2-cyano-4-{[(1S)-1-cyclopropylethyl]amino}cyclo-hexyl]-3-{[4-(trifluoromethoxy)phenyl]amino}-1H-pyrazole-4-carboxamide]
3	0.9	N#C[C@H]1CCCC[C@@H]1n1cc(C(N)=O)c(Nc2ccc(S(=O)(=O)N3CCC4(CC3)OCCO4)cc2)n1 (single isomer, unassigned) [Example 17-92, 1-[(1R,2R or 1S,2S)-2-cyanocyclohexyl]-3-{[4-(1,4-dioxa-8-azaspiro[4.5]dec-8-ylsulfonyl)phenyl]amino}-1H-pyrazole-4-carboxamide]
56	1	CN[C@H]1CCC(n2cc(C(N)=O)c(Nc3ccc(F)cc3)n2)[C@@H](C#N)C1 (mixture of isomers) [Example 27-4, 1-[(1S,2S,4S and 1R,2R,4R)-2-cyano-4-(methylamino)cyclohexyl]-3-[(4-fluorophenyl)amino]-1H-pyrazole-4-carboxamide]
4	0.65	CC(C)(O)[C@H]1CC[C@H](n2cc(C(N)=O)c(Nc3ccc(Cl)cc3)n2)[C@@H](C#N)C1 (single isomer, unassigned) [Example 36-1, 3-(4-chlorophenylamino)-1-((1S,2S,4S or 1R,2R,4R)-2-cyano-4-(2-hydroxypropan-2-yl)cyclohexyl)-1H-pyrazole-4-carboxamide]
39	7	N#C[C@H]1CCCC[C@@H]1n1cc(C(N)=O)c(Nc2cncc(Cl)c2)n1 (single isomer, unassigned) [Example 17-47, 3-[(5-chloropyridin-3-yl)amino]-1-[(1S,2S or 1R,2R)-2-cyanocyclohexyl]-1H-pyrazole-4-carboxamide]
85	1	C[C@H](N[C@H]1CC[C@H](n2cc(C(N)=O)c(Nc3ccc(Cl)cc3)n2)[C@@H](C#N)C1)C1CC1 (single isomer, unassigned) [Example 28-119, 3-[(4-chlorophenyl)amino]-1-[(1S,2S,4S or 1R,2R,4R)-2-cyano-4-{[(1R)-1-cyclopropylethyl]amino}cyclo-hexyl]-1H-pyrazole-4-carboxamide]
88	7	N#C[C@H]1C[C@H](OC(=O)NC2CCCCC2)CCC1n1cc(C(N)=O)c(Nc2ccc(F)cc2)n1 (mixture of isomers) [Example 34-5, (1R,3S,4S and 1S,3R,4R)-4-{4-carbamoyl-3-[(4-fluorophenyl)amino]-1H-pyrazol-1-yl}-3-cyanocyclohexyl cyclohexylcarbamate]
17	0.85	N#C[C@@H]1C[C@@H](NC2COC2)CC[C@H]1n1cc(C(N)=O)c(Nc2ccc(C(F)(F)F)cc2)n1 (single isomer, unassigned) [Example 30-17, 1-[(1R,2R,4S or 1S,2S,4R)-2-cyano-4-(oxetan-3-ylamino)cyclohexyl]-3-{[4-(trifluoromethyl)phenyl]amino}-1H-pyrazole-4-carboxamide]
2	0.16	N#C[C@H]1CCCCC1n1cc(C(N)=O)c(Nc2ccc(S(=O)(=O)CF)cc2)n1 (mixture of isomers) [Example 17-65, 1-[(1S,2S and 1R,2R)-2-cyanocyclohexyl]-3-({4-[(fluoromethyl)sulfonyl]phenyl}amino)-1H-pyrazole-4-carboxamide]
3	0.1	CS(=O)(=O)c1ccc(Nc2nn([C@H]3CC[C@@H](O)C[C@@H]3C#N)cc2C(N)=O)cc1 (single isomer, unassigned) [Example 25-28, 1-[(1S,2S,4R or 1R,2R,4S)-2-cyano-4-hydroxycyclohexyl]-3-{[4-(methylsulfonyl)phenyl]amino}-1H-pyrazole-4-carboxamide]
2	0.5	N#C[C@H]1CCCC[C@@H]1n1cc(C(N)=O)c(Nc2ccc(S(=O)(=O)NCCN3CCCC3)cc2)n1 (single isomer, unassigned) [Example 17-87, 1-[(1R,2R or 1S,2S)-2-cyanocyclohexyl]-3-({4-[(2-pyrrolidin-1-ylethyl)sulfamoyl]phenyl}amino)-1H-pyrazole-4-carboxamide]
16	1	N#C[C@H]1CC(N(C2CC2)C2CC2)CC[C@@H]1n1cc(C(N)=O)c(Nc2ccc(S(=O)(=O)C(F)(F)F)cc2)n1 (single isomer, unassigned) [Example 28-181, 1-[(1S,2S or 1R,2R)-2-cyano-4-(dicyclopropylamino)cyclohexyl]-3-({4-[(trifluoro-methyl)sulfonyl]phenyl}amino)-1H-pyrazole-4-carboxamide]
